Measured values published in patent US12171779B2, “Regulated drug delivery via controlled degradable chondroitin sulfate particles” (UNIVERSITY OF SOUTH FLORIDA, priority 2021, dated 2024).

Experiments:
[1] = Total phenolic content by Folin-Ciocalteau (FC) method; conditions: 1000 μg/mL concentration
Method: Total phenolic content of the particles was evaluated by Folin-Ciocalteau (FC) method. Briefly, 0.1 mL of 1 mg/mL microgel suspensions were reacted with 1.25 mL of 0.2 N solution of FC phenol reagent for 4 min. Next, 1 mL of 0.7 M sodium bicarbonate solution was added to this mixture and kept in the dark for 2 hours. Then, the total phenol content of the microgels was measured by using a UV/Vis spectrophotometer (T80+PG Instrument) at 760 nm. The antioxidant activity of the microgels was expressed as μg/mL gallic acid equivalent. The analysis was repeated three times, and the values are reported as the average values with standard deviations.

[2] = cited from earlier work

O=C(/C=C/c1ccc(O)c(O)c1)O[C@H](Cc1ccc(O)c(O)c1)C(=O)O [RA, Rosmarinic acid]
Total phenol content (TPC), gallic acid equivalent [1]: 556±35 μg/mL gallic acid equivalent | IC50 (50% inhibition of DPPH radical) [2]: 1.3 ± 0.1 µg/mL
